Measurements taken from paper PMC6801822, “The Bactericidal Activity of Temporin Analogues Against Methicillin Resistant Staphylococcus aureus” (International Journal of Molecular Sciences, 2019).
Values after ≈ are worked out from the molar mass of the structure shown. Read-outs that look alike come from different tables or passages of the source. Non-standard residues stand in square brackets, D forms with d. Residues, ends and D or L forms follow the SMILES beside them. AEEA = NCCOCCOCC(=O)O; βAla = NCCC(=O)O

Key:
[1] = test system: intracellular MRSA clinical isolate; settings: cited from earlier work; for MIC: MRSA clinical isolate
Source text: Cumulatively, these findings encouraged us to test the ability of the peptide conjugate to kill invasive intracellular MRSA. […] In addition, ...

[2] = test system: S. aureus USA300; settings: for MIC: USA300, 24 h
Experimental: (§1) Antimicrobial activity of peptides was analyzed through determination of MIC parameter according to the standard microdilution technique performed on 96-well plates. Mueller-Hinton broth (MHB, Sigma Aldrich, St. Louis, MO, USA) was used as the working medium for all bacterial strains. Briefly, inoculum was prepared from freshly grown cultures of bacteria being at their exponential phase of growth. Each well of 96-well plates containing 100 µL of serially diluted peptides in PBS at desired concentration was inoculated with 100 µL of 10^5 CFU/mL of bacterial suspension. Then plates were incubated overnight 37 °C and absorbance was read at 600 nm after 24 h. Wells without peptide were treated as the positive control, while uninoculated MHB was defined as the negative control. All measurements were run in triplicates.

[3] = test system: S. epidermidis ATCC 12228; settings: ATCC 12228, 24 h
Experimental: as §1

[4] = test system: S. aureus ATCC 25923; settings: ATCC 25923, 24 h
Experimental: as §1

[5] = test system: S. aureus Newman; settings: Newman, 24 h
Experimental: as §1

[6] = test system: S. aureus USA300; test: microbe, parasite or virus in culture; settings: Staphylococcus aureus, MRSA / USA300, 24 h
Experimental: as §1

[7] = cited from earlier work
Source text: The efficient antibacterial activity of the DAL-PEG-DK5 conjugate may be due to the fact that it has a higher cationic charge than DK5 (+7 vs. +6, respectively). However, a α-helicity must also play an important role in this case. According to a common view about the mechanism underlying the antimicrobial activity of AMPs, formation of hel ...

For temporin B, the MIC [1] is listed as 16 µM and the “killed intracellular MRSA” value ([1]; at 4 × MIC) is listed as 40%.
In the case of `CC[C@H](C)[C@H](NC(=O)COCCOCCNC(=O)[C@H](Cc1c[nH]cn1)NC(=O)CCNC(=O)[C@H](Cc1c[nH]cn1)NC(=O)CCNC(=O)[C@H](Cc1c[nH]cn1)NC(=O)CCN)C(=O)N[C@@H](CCCCN)C(=O)N[C@@H](CCCCN)C(=O)N[C@H](C(=O)N[C@@H](CC(C)C)C(=O)N[C@@H](CO)C(=O)N[C@H](CCCCN)C(=O)N[C@H](C(=O)N[C@@H](CCCCN)C(=O)N[C@@H](CCCCN)C(=O)N[C@@H](CC(C)C)C(=O)N[C@@H](CC(C)C)C(N)=O)[C@@H](C)CC)[C@@H](C)CC` [CAR3-PEG-DK5] (H-[βAla]H[βAla]H[βAla]H[AEEA]IKKILS[dK]IKKLL-NH2; N-terminus assumed), the MIC [2] is reported as >190 µg/mL, the MIC [3] is reported as 110 µg/mL (≈ 50.1 µM) and the MIC [4] is reported as >190 µg/mL. The MIC [5] was >190 µg/mL.
In the case of `CC[C@H](C)[C@H](NC(=O)COCCOCCNC(=O)CNC(=O)[C@@H]1CCCN1C(=O)[C@H](CCC(=O)O)NC(=O)[C@H](CC(C)C)NC(=O)CNC(=O)[C@@H](N)CCC(=O)O)C(=O)N[C@@H](CCCCN)C(=O)N[C@@H](CCCCN)C(=O)N[C@H](C(=O)N[C@@H](CC(C)C)C(=O)N[C@@H](CO)C(=O)N[C@H](CCCCN)C(=O)N[C@H](C(=O)N[C@@H](CCCCN)C(=O)N[C@@H](CCCCN)C(=O)N[C@@H](CC(C)C)C(=O)N[C@@H](CC(C)C)C(N)=O)[C@@H](C)CC)[C@@H](C)CC` [COMB1-PEG-DK5] (H-EGLEPG[AEEA]IKKILS[dK]IKKLL-NH2; N-terminus assumed), the MIC [2] is reported as >190 µg/mL, the MIC [3] is reported as >190 µg/mL and the MIC [4] is reported as >190 µg/mL. The MIC [5] was >190 µg/mL.
In the case of `CC[C@H](C)[C@H](NC(=O)COCCOCCNC(=O)[C@H](Cc1c[nH]cn1)NC(=O)CCN)C(=O)N[C@@H](CCCCN)C(=O)N[C@@H](CCCCN)C(=O)N[C@H](C(=O)N[C@@H](CC(C)C)C(=O)N[C@@H](CO)C(=O)N[C@H](CCCCN)C(=O)N[C@H](C(=O)N[C@@H](CCCCN)C(=O)N[C@@H](CCCCN)C(=O)N[C@@H](CC(C)C)C(=O)N[C@@H](CC(C)C)C(N)=O)[C@@H](C)CC)[C@@H](C)CC` [CAR-PEG-DK5] (H-[βAla]H[AEEA]IKKILS[dK]IKKLL-NH2; N-terminus assumed), the MIC [2] is reported as >190 µg/mL, the MIC [3] is reported as 40 µg/mL (≈ 22.5 µM) and the MIC [4] is reported as >190 µg/mL. For the same compound, the MIC [5] was >190 µg/mL.
Work on `CN[C@H](CC(C)C)C(=O)N[C@H]1C(=O)N[C@@H](CC(N)=O)C(=O)N[C@H]2C(=O)N[C@H]3C(=O)N[C@H](C(=O)N[C@H](C(=O)O)c4cc(O)cc(O)c4-c4cc3ccc4O)[C@H](O)c3ccc(c(Cl)c3)Oc3cc2cc(c3O[C@@H]2O[C@H](CO)[C@@H](O)[C@H](O)[C@H]2O[C@H]2C[C@](C)(N)[C@H](O)[C@H](C)O2)Oc2ccc(cc2Cl)[C@H]1O` [Vancomycin, vancomycin] yielded an MIC [6] of 1 µg/mL (≈ 0.69 µM).
In the case of `CC[C@H](C)[C@H](N)C(=O)N[C@@H](CCCCN)C(=O)N[C@@H](CCCCN)C(=O)N[C@H](C(=O)N[C@@H](CC(C)C)C(=O)N[C@@H](CO)C(=O)N[C@H](CCCCN)C(=O)N[C@H](C(=O)N[C@@H](CCCCN)C(=O)N[C@@H](CCCCN)C(=O)N[C@@H](CC(C)C)C(=O)N[C@@H](CC(C)C)C(N)=O)[C@@H](C)CC)[C@@H](C)CC` [DK5] (H-IKKILS[dK]IKKLL-NH2; N-terminus assumed), the MIC [2] is given as >190 µg/mL and the cationic charge [7] is given as “+6”.
`CC(=O)NC[C@H]1CN(c2ccc(N3CCOCC3)c(F)c2)C(=O)O1` [Linezolid, linezolid] showed an MIC [6] of 1 µg/mL (≈ 2.96 µM).
For `CC[C@H](C)[C@H](N)C(=O)N[C@@H](CCCCN)C(=O)N[C@@H](CCCCN)C(=O)N[C@H](C(=O)N[C@@H](CC(C)C)C(=O)N[C@@H](CO)C(=O)N[C@H](CCCCN)C(=O)N[C@H](C(=O)N[C@@H](CCCCN)C(=O)N[C@@H](CCCCN)C(=O)N[C@@H](CC(C)C)C(=O)N[C@@H](CC(C)C)C(=O)NCCOCCOCC(=O)N[C@@H](Cc1ccc(O)cc1)C(=O)N[C@H](C)C(=O)NCC(=O)N[C@@H](Cc1ccccc1)C(=O)N[C@@H](CC(C)C)C(=O)N[C@@H](CCCNC(=N)N)C(N)=O)[C@@H](C)CC)[C@@H](C)CC` [DK5-PEG-DAL] (H-IKKILS[dK]IKKLL[AEEA]Y[dA]GFLR-NH2; N-terminus and C-terminus assumed), the “inhibition of USA300 growth relative to DAL-PEG-DK5” value ([2]; comparison of MIC 160 vs 40 μg/mL) is listed as “four times less” and the α-helical content ([7]; circular dichroism, 30 mM SDS in water) is listed as 20%.
For temporin A, the MIC [1] is given as 8 µM and the “killed intracellular MRSA” value ([1]; at 2 × MIC) is given as 20%.
